For series [1], the target named is T1, α7-subtype of nicotinic receptors (Rattus norvegicus, UniProt Q05941).
T1 construct: Cerebral cortices from male Wistar rats (150-250 g) are homogenised; from tissue; host or cells: rat cerebral cortex membrane homogenate
Nature of the series: In vitro inhibition of 3H-α-bungarotoxine binding in rat brain. The settings on record: rat cerebral cortex homogenate; 3H-α-bungarotoxine 2 nM; 2 hours at 37° C.

Structures can show the parent of a compound that is named as a salt.

T1 sequence (Q05941 23-502): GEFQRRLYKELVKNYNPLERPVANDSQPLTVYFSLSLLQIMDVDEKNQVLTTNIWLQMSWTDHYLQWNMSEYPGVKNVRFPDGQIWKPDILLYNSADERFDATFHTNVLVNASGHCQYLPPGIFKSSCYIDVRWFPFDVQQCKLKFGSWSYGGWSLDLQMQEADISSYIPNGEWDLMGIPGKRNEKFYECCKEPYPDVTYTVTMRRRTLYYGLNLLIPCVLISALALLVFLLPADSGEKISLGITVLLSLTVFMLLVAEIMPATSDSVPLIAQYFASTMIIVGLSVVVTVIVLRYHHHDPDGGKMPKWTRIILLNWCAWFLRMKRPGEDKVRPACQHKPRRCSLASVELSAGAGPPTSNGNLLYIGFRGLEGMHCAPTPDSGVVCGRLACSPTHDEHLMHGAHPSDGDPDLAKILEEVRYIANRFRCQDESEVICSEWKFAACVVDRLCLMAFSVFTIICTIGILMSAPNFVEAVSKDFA

Regarding `Nc1ccc(C(=O)Nc2ccc(-c3ccc(C(=O)N4CCN5CCC4CC5)o3)cc2)cc1`, the melting point (as a rule, the temperature of the solid-liquid transition) was found to be 151 °C. The same measure, in the same setting: the result for `Nc1cccc(C(=O)Nc2ccc(-c3ccc(C(=O)N4CCN5CCC4CC5)o3)cc2)c1` reads 249 to 252 °C. On the same count and under the same terms, as for `O=C(Nc1ccc(-c2ccc(C(=O)N3CCN4CCC3CC4)o2)cc1)Nc1ccccc1F`, the figure is 241 °C (dec.). Regarding `O=C(Nc1ccc(-c2ccc(C(=O)N3CCN4CCC3CC4)o2)cc1)Nc1cccc(F)c1`, the melting point came to 230 °C. Still for that read-out and setting: as for `O=C(Nc1ccc(-c2ccc(C(=O)N3CCN4CCC3CC4)o2)cc1)Nc1ccccc1C(F)(F)F`, the figure is 253 °C (dec.); as for `O=C(Nc1ccc(-c2ccc(C(=O)N3CCN4CCC3CC4)o2)cc1)Nc1cccc(C(F)(F)F)c1`, 171 °C. In turn, `O=C(c1ccc(-c2ccc(NC(=S)Nc3ccccc3)cc2)o1)N1CCN2CCC1CC2` returned a melting point of 171.4 to 174.7 °C. Regarding `O=C(Nc1ccc(-c2ccc(C(=O)N3CCN4CCC3CC4)o2)cc1)Nc1ccccc1Cl`, the melting point was 200 to 211 °C (dec.).

Consider `O=C(Nc1ccc(-c2ccc(C(=O)N3CCN4CCC3CC4)o2)cc1)c1ccccc1`, for which the melting point was 254 °C. The same measure, in the same setting: the result for `CCNC(=O)Nc1ccccc1NC(=O)Nc1ccc(-c2ccc(C(=O)N3CCN4CCC3CC4)o2)cc1` (as salt: fumaric acid salt) reads 162.5 to 165.5 °C; that for `CCNC(=O)Nc1cccc(-c2ccc(C(=O)N3CCN4CCC3CC4)o2)c1` (as salt: fumaric acid salt), 158 to 161 °C; that for `O=C(Nc1ccc(-c2ccc(C(=O)N3CCN4CCC3CC4)o2)cc1)c1ccncc1` (as salt: fumaric acid salt), 250 to 253.5 °C. The same measure, in the same setting: as for `O=C(Nc1ccc(-c2ccc(C(=O)N3CCN4CCC3CC4)o2)cc1)Nc1ccccc1[N+](=O)[O-]` (as salt: fumaric acid salt), the figure is 198 to 202 °C; as for `O=C(Nc1cccc(-c2ccc(C(=O)N3CCN4CCC3CC4)o2)c1)c1ccccc1` (as salt: fumaric acid salt), 201 to 204 °C; as for `O=C(c1ccc(-c2ccc(-n3cccc3)cc2)o1)N1CCN2CCC1CC2` (as salt: fumaric acid salt), 222 °C. Still for that read-out and setting: as for `O=C(c1ccc(-c2ccc(Nc3ncccc3[N+](=O)[O-])cc2)o1)N1CCN2CCC1CC2` (as salt: fumaric acid salt), the figure is 223 °C; as for `CC(=O)Nc1ccccc1NC(=O)Nc1ccc(-c2ccc(C(=O)N3CCN4CCC3CC4)o2)cc1` (as salt: fumaric acid salt) [Compound B2, 1-{4-[5-(1,4-Diaza-bicyclo[3.2.2]nonane-4-carbonyl)-furan-2-yl]-phenyl}-3-(2-acetylaminophenyl)-urea], 159 to 169 °C.

`CCNC(=O)Nc1ccc(-c2ccc(C(=O)N3CCN4CCC3CC4)o2)cc1` (as salt: fumaric acid salt) [Compound C3, 1-{4-[5-(1,4-Diaza-bicyclo[3.2.2]nonane-4-carbonyl)-furan-2-yl]-phenyl}-3-ethyl-urea] came in with a melting point of 167 to 171 °C. On the same count and under the same terms, the result for `O=C(Nc1ccc(-c2ccc(C(=O)N3CCN4CCC3CC4)o2)cc1)c1ccccc1[N+](=O)[O-]` (as salt: hydrochloric acid salt) reads 283 °C; that for `O=C(Nc1ccc(-c2ccc(C(=O)N3CCN4CCC3CC4)o2)cc1)c1ccc([N+](=O)[O-])cc1` (as salt: hydrochloric acid salt), 195 to 210 °C; that for `O=C(Nc1ccc(-c2ccc(C(=O)N3CCN4CCC3CC4)o2)cc1)c1cccc([N+](=O)[O-])c1` (as salt: hydrochloric acid salt), > 300 °C.

`Nc1ccccc1NC(=O)Nc1ccc(-c2ccc(C(=O)N3CCN4CCC3CC4)o2)cc1` [Compound A1, 1-{4-[5-(1,4-Diaza-bicyclo[3.2.2]nonane-4-carbonyl)-furan-2-yl]-phenyl}-3-(2-aminophenyl)-urea] returned a melting point of 174 °C. Further, in series [1], the IC50 (as a rule, the point on the concentration scale where inhibition reaches its midpoint) was found to be 1.2 nM. In the case of `CC(=O)Nc1ccccc1NC(=O)Nc1ccc(-c2ccc(C(=O)N3CCN4CCC3CC4)o2)cc1` [Compound B2, 1-{4-[5-(1,4-Diaza-bicyclo[3.2.2]nonane-4-carbonyl)-furan-2-yl]-phenyl}-3-(2-acetylaminophenyl)-urea], the IC50 in series [1] worked out at 1.6 nM. In turn, `CCNC(=O)Nc1ccc(-c2ccc(C(=O)N3CCN4CCC3CC4)o2)cc1` [Compound C3, 1-{4-[5-(1,4-Diaza-bicyclo[3.2.2]nonane-4-carbonyl)-furan-2-yl]-phenyl}-3-ethyl-urea] yielded an IC50 in series [1] of 0.56 nM.

For the origin of these results see patent publication US20100130482A1, “DIA[…] DERIVATIVES AS NICOTINIC ACETYLCHOLINE RECEPTOR LIGANDS” (priority 2004, published 2010).
